*1 amine or outer side, *2 acyl side, *3 side chain or, on linkers, in order; H or OH if unused. Where a SMILES comes first, the peptide text is derived from it. Bridges are numbered along the chain shown (N, C = ends). [ ]: non-standard residue; d: D form. The star is where a group is joined. ξ: configuration not given here. Phe(3-CF3) = N[C@@H](Cc1cccc(C(F)(F)F)c1)C(=O)O; Phe(4-CONH2) = NC(=O)c1ccc(C[C@H](N)C(=O)O)cc1; Phe(4-COOH) = N[C@@H](Cc1ccc(C(=O)O)cc1)C(=O)O; Bip = N[C@@H](Cc1ccc(-c2ccccc2)cc1)C(=O)O; Phe(3-Me) = Cc1cccc(C[C@H](N)C(=O)O)c1; γGlu = O=C(O)[C@H](CCC(=O)[*:2])N[*:1]; NH(CH2)12COOH = O=C(O)CCCCCCCCCCCCN*; Val(3-OH) = CC(C)(O)[C@H](N)C(=O)O; 4Pal = N[C@@H](Cc1ccncc1)C(=O)O; Cha = N[C@@H](CC1CCCCC1)C(=O)O; Cit = NC(=O)NCCC[C@H](N)C(=O)O; Ile(3ξ) = CCC(C)[C@H](N)C(=O)O; Thr(3ξ) = CC(O)[C@H](N)C(=O)O; 12Ado = NCCCCCCCCCCCC(=O)O; Carboxymethyl = O=C(O)C*; NMeA = CN[C@@H](C)C(=O)O; Orn = NCCC[C@H](N)C(=O)O; Aun = NCCCCCCCCCCC(=O)O; Dab = NCC[C@H](N)C(=O)O; AEEA = NCCOCCOCC(=O)O
Target: T1, PD-1/PD-L1 interaction (PE-labeled human PD-L1-Ig binding to Jurkat cell line over-expressing human PD-1) (Homo sapiens, UniProt Q15116)
T1 construct: expressed in transfected cells; host or cells: Jurkat
Assay: Jurkat-PD-1 Cell Binding High-Content Screening Assay (CBA)
Settings: Jurkat-hPD-1 cells, PE-labeled PD-L1-Ig 20 nM final; read-out: Jurkat HPD1 PDL1 IC50
Method in brief: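 High-content imaging read-out of PE-PD-L1-Ig binding (20 nM final, 1 h) to Jurkat-hPD-1 cells, after 2 h compound exposure at 37 °C in DMEM with 10% FCS. Nuclei counterstained with Hoechst 33342 after paraformaldehyde fixation.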

T1 sequence (Q15116 25-288): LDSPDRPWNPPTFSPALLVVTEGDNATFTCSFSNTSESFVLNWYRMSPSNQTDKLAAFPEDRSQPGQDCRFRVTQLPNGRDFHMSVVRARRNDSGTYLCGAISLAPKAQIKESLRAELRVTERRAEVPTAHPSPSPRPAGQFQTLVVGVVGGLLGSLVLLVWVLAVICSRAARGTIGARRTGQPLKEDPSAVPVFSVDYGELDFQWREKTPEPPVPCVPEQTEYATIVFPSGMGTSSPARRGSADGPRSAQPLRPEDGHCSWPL

| SMILES | IC50 |
| --- | --- |
| CCC(C)[C@@H]1NC(=O)[C@H](Cc2ccc(-c3ccccc3)cc2)NC(=O)[C@H](C(C)C)NC(=O)[C@H](Cc2c[nH]c3ccccc23)NC(=O)[C@H](CC(=O)O)NC(=O)[C@H](Cc2ccc(OCC(=O)O)cc2)NC(=O)[C@H](C(C)O)NC(=O)CSC[C@@H](C(=O)N[C@@H](CCCN)C(=O)N[C@@H](CCC(=O)NCCCCCCCCCCCC(=O)O)C(=O)O)NC(=O)[C@H](C(C)O)NC(=O)[C@H](C(C)C)NC(=O)[C@H](CC2CCCCC2)NC(=O)[C@H](CCN)NC(=O)[C@@H](CC(C)C)NC(=O)[C@H](C)N(C)C1=O (stereo partly drawn) [Example 2417] ({CH2CO}-[Thr(3ξ)]Y(Carboxymethyl)DWV[Bip][Ile(3ξ)][NMeA][dL][Dab][Cha]V[Thr(3ξ)]C[Orn][γGlu][12Ado]-OH; thioether N-14) | 0.0323 µM |
| COC[C@@H]1NC(=O)CSC[C@@H](C(=O)N[C@@H](CCN)C(=O)NCCOCCOCC(=O)N[C@@H](CCC(=O)NCCOCCOCC(=O)NCCCCCCCCCCCCC(=O)O)C(=O)O)NC(=O)[C@H](CCC(=O)O)NC(=O)[C@H](C(C)C)NC(=O)[C@H](CC2CCCCC2)NC(=O)[C@H](CCN)NC(=O)[C@@H](CC(C)C)NC(=O)[C@H](C)N(C)C(=O)[C@H](Cc2ccc(C(=O)O)cc2)NC(=O)[C@H](Cc2ccc(-c3ccccc3)cc2)NC(=O)[C@H](Cc2ccc(C(=O)O)cc2)NC(=O)[C@H](Cc2cccc(C(F)(F)F)c2)NC(=O)[C@H](CC(=O)O)NC(=O)[C@H](Cc2ccc(OCC(=O)O)cc2)NC1=O [Example 1169] ({CH2CO}-S(Me)Y(Carboxymethyl)D[Phe(3-CF3)][Phe(4-COOH)][Bip][Phe(4-COOH)][NMeA][dL][Dab][Cha]VEC[Dab][AEEA][γGlu][AEEA]-{NH(CH2)12COOH}; thioether N-14) | 0.0606 µM |

Continued, values first:

| IC50 | SMILES |
| --- | --- |
| 0.0118 µM | CC(C)C[C@@H]1NC(=O)[C@H](Cc2c[nH]c3ccccc23)NC(=O)[C@H](CC(=O)O)NC(=O)[C@H](Cc2ccc(C(=O)O)cc2)NC(=O)[C@H](Cc2ccc(OCC(=O)O)cc2)NC(=O)CSC[C@@H](C(=O)N[C@@H](CCCCN)C(=O)NCCOCCOCC(=O)NCCCCCCCCCCC(=O)O)NC(=O)[C@H](CO)NC(=O)[C@H](C(C)C)NC(=O)[C@H](CC2CCCCC2)NC(=O)[C@H](CCN)NC(=O)[C@@H](CC(C)C)NC(=O)[C@H](C)N(C)C(=O)[C@H](C(C)C)NC(=O)[C@H](Cc2ccc(-c3ccccc3)cc2)NC1=O [Example 2096] ({CH2CO}-Y(Carboxymethyl)[Phe(4-COOH)]DWL[Bip]V[NMeA][dL][Dab][Cha]VSCK[AEEA][Aun]-OH; thioether N-14) |
| 0.0115 µM | CC(C)C[C@@H]1NC(=O)[C@H](Cc2c[nH]c3ccccc23)NC(=O)[C@H](CC(=O)O)NC(=O)[C@H](Cc2ccc(C(=O)O)cc2)NC(=O)[C@H](Cc2ccc(OCC(=O)O)cc2)NC(=O)CSC[C@@H](C(=O)N[C@@H](CCCN)C(=O)NCCOCCOCC(=O)NCCCCCCCCCCC(=O)O)NC(=O)[C@H](CC(=O)O)NC(=O)[C@H](C(C)C)NC(=O)[C@H](CC2CCCCC2)NC(=O)[C@H](CCN)NC(=O)[C@@H](CC(C)C)NC(=O)[C@H](C)N(C)C(=O)[C@H](C(C)C)NC(=O)[C@H](Cc2ccc(-c3ccccc3)cc2)NC1=O [Example 2125] ({CH2CO}-Y(Carboxymethyl)[Phe(4-COOH)]DWL[Bip]V[NMeA][dL][Dab][Cha]VDC[Orn][AEEA][Aun]-OH; thioether N-14) |
| 0.0104 µM | CC(C)C[C@@H]1NC(=O)[C@H](Cc2c[nH]c3ccccc23)NC(=O)[C@H](CC(=O)O)NC(=O)[C@H](Cc2ccc(C(=O)O)cc2)NC(=O)[C@H](Cc2ccc(OCC(=O)O)cc2)NC(=O)CSC[C@@H](C(=O)N[C@@H](CCN)C(=O)NCCOCCOCC(=O)NCCCCCCCCCCC(=O)O)NC(=O)[C@H](CCCNC(N)=O)NC(=O)[C@H](C(C)C)NC(=O)[C@H](CC2CCCCC2)NC(=O)[C@H](CCN)NC(=O)[C@@H](CC(C)C)NC(=O)[C@H](C)N(C)C(=O)[C@H](C(C)C)NC(=O)[C@H](Cc2ccc(-c3ccccc3)cc2)NC1=O [Example 2127] ({CH2CO}-Y(Carboxymethyl)[Phe(4-COOH)]DWL[Bip]V[NMeA][dL][Dab][Cha]V[Cit]C[Dab][AEEA][Aun]-OH; thioether N-14) |
| 0.0102 µM | Cc1cccc(C[C@@H]2NC(=O)[C@H](CC(=O)O)NC(=O)[C@H](Cc3ccc(OCC(=O)O)cc3)NC(=O)[C@H](C(C)O)NC(=O)CSC[C@@H](C(=O)N[C@H](CC(N)=O)C(=O)NCCCCCCCCCCC(=O)O)NC(=O)[C@H](CCCN)NC(=O)[C@H](C(C)C)NC(=O)[C@H](CC3CCCCC3)NC(=O)[C@H](CCN)NC(=O)[C@@H](CC(C)C)NC(=O)[C@H](C)N(C)C(=O)[C@H](Cc3ccc(O)cc3)NC(=O)[C@H](Cc3ccc(-c4ccccc4)cc3)NC(=O)[C@H](C(C)C)NC2=O)c1 (stereo partly drawn) [Example 2241] ({CH2CO}-[Thr(3ξ)]Y(Carboxymethyl)D[Phe(3-Me)]V[Bip]Y[NMeA][dL][Dab][Cha]V[Orn]C[dN][Aun]-OH; thioether N-14) |
| 0.0095 µM | CC(C)C[C@@H]1NC(=O)[C@H](Cc2c[nH]c3ccccc23)NC(=O)[C@H](CC(=O)O)NC(=O)[C@H](Cc2ccc(C(=O)O)cc2)NC(=O)[C@H](Cc2ccc(OCC(=O)O)cc2)NC(=O)CSC[C@@H](C(=O)N[C@@H](CCCN)C(=O)NCCOCCOCC(=O)NCCCCCCCCCCC(=O)O)NC(=O)[C@H](CO)NC(=O)[C@H](C(C)C)NC(=O)[C@H](CC2CCCCC2)NC(=O)[C@H](CCN)NC(=O)[C@@H](CC(C)C)NC(=O)[C@H](C)N(C)C(=O)[C@H](C(C)C)NC(=O)[C@H](Cc2ccc(-c3ccccc3)cc2)NC1=O [Example 2095] ({CH2CO}-Y(Carboxymethyl)[Phe(4-COOH)]DWL[Bip]V[NMeA][dL][Dab][Cha]VSC[Orn][AEEA][Aun]-OH; thioether N-14) |

Same assay, conditions: PE-labeled PD-L1-Ig 20 nM final, Jurkat-hPD-1 cells; read-out: Jurkat HPD1 PDL1 IC50

| IC50 | SMILES |
| --- | --- |
| 0.009 µM | Cc1cccc(C[C@@H]2NC(=O)[C@H](CC(=O)O)NC(=O)[C@H](Cc3ccc(C(=O)O)cc3)NC(=O)[C@H](Cc3ccncc3)NC(=O)CSC[C@@H](C(=O)N[C@@H](CCN)C(=O)NCCOCCOCC(=O)NCCCCCCCCCCC(=O)O)NC(=O)[C@H](C(C)O)NC(=O)[C@H](C(C)(C)O)NC(=O)[C@H](CC3CCCCC3)NC(=O)[C@H](CCN)NC(=O)[C@@H](CC(C)C)NC(=O)[C@H](C)N(C)C(=O)[C@H](CCC(=O)O)NC(=O)[C@H](Cc3ccc(-c4ccccc4)cc3)NC(=O)[C@H](Cc3ccc(C(N)=O)cc3)NC2=O)c1 (stereo partly drawn) [Example 2540] ({CH2CO}-[4Pal][Phe(4-COOH)]D[Phe(3-Me)][Phe(4-CONH2)][Bip]E[NMeA][dL][Dab][Cha][Val(3-OH)][Thr(3ξ)]C[Dab][AEEA][Aun]-OH; thioether N-14) |
| 0.0149 µM | CC(=O)NCCCC[C@@H]1NC(=O)[C@H](C(C)(C)O)NC(=O)[C@H](CC2CCCCC2)NC(=O)[C@H](CCN)NC(=O)[C@@H](CC(C)C)NC(=O)[C@H](C)N(C)C(=O)[C@H](C(C)C)NC(=O)[C@H](Cc2ccc(-c3ccccc3)cc2)NC(=O)[C@H](CC(C)C)NC(=O)[C@H](Cc2c[nH]c3ccccc23)NC(=O)[C@H](CC(=O)O)NC(=O)[C@H](Cc2ccc(C(=O)O)cc2)NC(=O)[C@H](Cc2ccc(OCC(=O)O)cc2)NC(=O)CSC[C@@H](C(=O)NCCOCCOCC(=O)NCCCCCCCCCCC(=O)O)NC1=O [Example 2460] ({CH2CO}-Y(Carboxymethyl)[Phe(4-COOH)]DWL[Bip]V[NMeA][dL][Dab][Cha][Val(3-OH)]K(Ac)C[AEEA][Aun]-OH; thioether N-14) |

— US20260070945A1, “MACROCYCLIC IMMUNOMODULATORS” (Bristol-Myers Squibb Company, priority 2022, published 2026)
